Patent US20260124184A1, “ONCE DAILY ALDOSTERONE SYNTHASE INHIBITOR (R)-(+)-5-(P-CYANOPHENYL)-5,6,7,8-TETRAHYDROIMIDAZO[L,5-A]PYRIDINE” (priority 2022, published 2026)
Like-named read-outs stand apart in the source and are kept apart here.

What was measured:
[1] = system: patients with primary aldosteronism
Experimental: (§1) A double-blind, randomized, Phase 2 trial was conducted between November 2019 and June 2022 at 11 centres in Italy, Switzerland and the Netherlands (NCT04007406). […] Patients requiring fixed-dose antihypertensive therapy continued treatment throughout the study; steroid therapies, β-adrenergic and renin-angiotensin-aldosterone system blockers were not permitted. At 14-day intervals, office blood pressures were recorded and blood samples were taken for measurement of steroid and peptide hormones and electrolytes at a central laboratory.

[2] = system: patients with primary aldosteronism; remark: listed apart in the source
Experimental: as §1
The urinary content of tetrahydroaldosterone (THA) was measured centrally by gas chromatography-coupled mass spectrometry (GC-MS).

[3] = 4 mg once daily, n=10, Day 1 (baseline)
[4] = 8 mg once daily, n=12, Day 1 (baseline)
[5] = 12 mg once daily, n=13, Day 1 (baseline)

(R)-(+)-5-(p-cyanophenyl)-5,6,7,8-tetrahydroimidazolium[1,5-a]pyridine dihydrogen phosphate [dexfadrostat phosphate]
plasma potassium concentration, mean ([1]; baseline potassium ≥3.6 mmol/L, 8 mg QD, Day 42): 3.9 mmol/L | plasma potassium concentration, mean ([1]; baseline potassium ≥3.6 mmol/L, 8 mg QD, Day 56): 4.1 mmol/L | plasma potassium concentration, mean ([1]; baseline potassium ≥3.6 mmol/L, 8 mg QD, Day 70 (placebo withdrawal)): 3.9 mmol/L | plasma potassium concentration, mean ([1]; baseline potassium ≥3.6 mmol/L, 12 mg QD, Day 1 (baseline)): 3.9 mmol/L | plasma potassium concentration, mean ([1]; baseline potassium ≥3.6 mmol/L, 12 mg QD, Day 14): 4.0 mmol/L | plasma potassium concentration, mean ([1]; baseline potassium ≥3.6 mmol/L, 12 mg QD, Day 28): 4.1 mmol/L | plasma potassium concentration, mean ([1]; baseline potassium ≥3.6 mmol/L, 12 mg QD, Day 42): 4.0 mmol/L | plasma potassium concentration, mean ([1]; baseline potassium ≥3.6 mmol/L, 12 mg QD, Day 56): 3.9 mmol/L | plasma potassium concentration, mean ([1]; baseline potassium ≥3.6 mmol/L, 12 mg QD, Day 70 (placebo withdrawal)): 3.7 mmol/L | plasma potassium concentration, mean ([1]; baseline ≤3.0 mmol/L despite potassium supplements, all doses QD, Day 1 (baseline)): 3.2 mmol/L | plasma potassium concentration, mean ([1]; baseline ≤3.0 mmol/L despite potassium supplements, all doses QD, Day 14): 4.0 mmol/L | plasma potassium concentration, mean ([1]; baseline ≤3.0 mmol/L despite potassium supplements, all doses QD, Day 28): 4.1 mmol/L | plasma potassium concentration, mean ([1]; baseline ≤3.0 mmol/L despite potassium supplements, all doses QD, Day 42): 4.2 mmol/L | plasma potassium concentration, mean ([1]; baseline ≤3.0 mmol/L despite potassium supplements, all doses QD, Day 56): 4.0 mmol/L | plasma potassium concentration, mean ([1]; baseline ≤3.0 mmol/L despite potassium supplements, all doses QD, Day 70 (placebo withdrawal)): 3.8 mmol/L | effect on plasma potassium concentration ([1]; each dose arm, sustained over active treatment period): rapid and significant (p<0.001) increase in plasma potassium concentrations | plasma potassium concentration, mean ([1]; in presence of potassium supplements, all doses QD, Day 1 (baseline)): 3.3 mmol/L | plasma potassium concentration, mean ([1]; in presence of potassium supplements, all doses QD, Day 14): 4.1 mmol/L | plasma potassium concentration, mean ([1]; in presence of potassium supplements, all doses QD, Day 28): 4.0 mmol/L | plasma potassium concentration, mean ([1]; in presence of potassium supplements, all doses QD, Day 42): 4.1 mmol/L | plasma potassium concentration, mean ([1]; in presence of potassium supplements, all doses QD, Day 56): 4.1 mmol/L | plasma potassium concentration, mean ([1]; in presence of potassium supplements, all doses QD, Day 70 (placebo withdrawal)): 3.8 mmol/L | change in urine THA content from baseline to Day 56, mean ([2]; 4 mg once daily, n=10): −66.90 24 μg/24-hour | change in urine THA content from baseline to Day 56, median ([2]; 4 mg once daily, n=10): −61.00 24 μg/24-hour | urine tetrahydroaldosterone (THA) content, mean [2, 3]: 78.90 24 μg/24-hour | urine tetrahydroaldosterone (THA) content, median [2, 3]: 80.00 24 μg/24-hour | urine tetrahydroaldosterone (THA) content, mean ([2]; 4 mg once daily, n=10, Day 56): 12.00 24 μg/24-hour | urine tetrahydroaldosterone (THA) content, median ([2]; 4 mg once daily, n=10, Day 56): 11.50 24 μg/24-hour | change in urine THA content from baseline to Day 56, mean ([2]; 8 mg once daily, n=12): −63.00 24 μg/24-hour | change in urine THA content from baseline to Day 56, median ([2]; 8 mg once daily, n=12): −50.00 24 μg/24-hour | urine tetrahydroaldosterone (THA) content, mean [2, 4]: 71.67 24 μg/24-hour | urine tetrahydroaldosterone (THA) content, median [2, 4]: 59.50 24 μg/24-hour | urine tetrahydroaldosterone (THA) content, mean ([2]; 8 mg once daily, n=12, Day 56): 8.67 24 μg/24-hour | urine tetrahydroaldosterone (THA) content, median ([2]; 8 mg once daily, n=12, Day 56): 5.00 24 μg/24-hour | change in urine THA content from baseline to Day 56, mean ([2]; 12 mg once daily, n=13): −58.31 24 μg/24-hour | change in urine THA content from baseline to Day 56, median ([2]; 12 mg once daily, n=13): −66.00 24 μg/24-hour | urine tetrahydroaldosterone (THA) content, mean [2, 5]: 67.38 24 μg/24-hour | urine tetrahydroaldosterone (THA) content, median [2, 5]: 69.00 24 μg/24-hour | urine tetrahydroaldosterone (THA) content, mean ([2]; 12 mg once daily, n=13, Day 56): 9.08 24 μg/24-hour | urine tetrahydroaldosterone (THA) content, median ([2]; 12 mg once daily, n=13, Day 56): 5.00 24 μg/24-hour | effect on urinary tetrahydroaldosterone content ([2]; all three doses, 24-hour urine at end of active treatment vs baseline): significant reductions (p<0.0001) in tetrahydroaldosterone (THA) content | urine aldosterone content, mean ([2]; baseline urine aldosterone 10-50 μg/24-hour, 4 mg QD, Day 1 (baseline)): 26 μg/24-hour | urine aldosterone content, mean ([2]; baseline urine aldosterone 10-50 μg/24-hour, 4 mg QD, Day 56): 6 μg/24-hour | urine aldosterone content, mean ([2]; baseline urine aldosterone 10-50 μg/24-hour, 8 mg QD, Day 1 (baseline)): 33 μg/24-hour | urine aldosterone content, mean ([2]; baseline urine aldosterone 10-50 μg/24-hour, 8 mg QD, Day 56): 8 μg/24-hour | urine aldosterone content, mean ([2]; baseline urine aldosterone 10-50 μg/24-hour, 12 mg QD, Day 1 (baseline)): 29 μg/24-hour | urine aldosterone content, mean ([2]; baseline urine aldosterone 10-50 μg/24-hour, 12 mg QD, Day 56): 3 μg/24-hour | urine aldosterone content, mean ([2]; baseline urine aldosterone 50-100 μg/24-hour, 4 mg QD, Day 1 (baseline)): 74 μg/24-hour | urine aldosterone content, mean ([2]; baseline urine aldosterone 50-100 μg/24-hour, 4 mg QD, Day 56): 15 μg/24-hour | urine aldosterone content, mean ([2]; baseline urine aldosterone 50-100 μg/24-hour, 8 mg QD, Day 1 (baseline)): 69 μg/24-hour | urine aldosterone content, mean ([2]; baseline urine aldosterone 50-100 μg/24-hour, 8 mg QD, Day 56): 5 μg/24-hour | urine aldosterone content, mean ([2]; baseline urine aldosterone 50-100 μg/24-hour, 12 mg QD, Day 1 (baseline)): 68 μg/24-hour | urine aldosterone content, mean ([2]; baseline urine aldosterone 50-100 μg/24-hour, 12 mg QD, Day 56): 12 μg/24-hour | urine aldosterone content, mean ([2]; baseline urine aldosterone 100-250 μg/24-hour, 4 mg QD, Day 1 (baseline)): 123 μg/24-hour | urine aldosterone content, mean ([2]; baseline urine aldosterone 100-250 μg/24-hour, 4 mg QD, Day 56): 13 μg/24-hour | urine aldosterone content, mean ([2]; baseline urine aldosterone 100-250 μg/24-hour, 8 mg QD, Day 1 (baseline)): 69 μg/24-hour | urine aldosterone content, mean ([2]; baseline urine aldosterone 100-250 μg/24-hour, 8 mg QD, Day 56): 5 μg/24-hour | urine aldosterone content, mean ([2]; baseline urine aldosterone 100-250 μg/24-hour, 12 mg QD, Day 1 (baseline)): 68 μg/24-hour | urine aldosterone content, mean ([2]; baseline urine aldosterone 100-250 μg/24-hour, 12 mg QD, Day 56): 12 μg/24-hour
